According to the Biogen ADME set (Fang et al. 2023):
In brackets after ≈: the same amount, converted by molar mass.

Details: for aqueous solubility: pH 6.8

MDR1-MDCK efflux ratio | intrinsic clearance, human liver microsomes | intrinsic clearance, rat liver microsomes | aqueous solubility | fraction unbound, human plasma | fraction unbound, rat plasma | SMILES
0.766 | 9.46 mL/min/kg | 124 mL/min/kg | 51.7 µg/mL (≈ 177 µM) | – | – | Cc1cc(N2CCN(C(=O)OC(C)(C)C)[C@H](C)C2)ncn1
2.92 | ≤ 4.74 mL/min/kg | 30.6 mL/min/kg | – | – | – | CCOCCC(=O)N1CCC2(CCCN(C)CC2)CC1
2.26 | 400 mL/min/kg | 1630 mL/min/kg | 29.2 µg/mL (≈ 78.4 µM) | 0.0351 | 0.0289 | Fc1ccccc1-c1c[nH]nc1C1CCCN1Cc1ccc2ncccc2c1 (stereo not drawn)
0.663 | ≤ 4.74 mL/min/kg | 69.7 mL/min/kg | – | – | – | CC1(C)CCCN1C(=O)c1c(F)cc(C#N)cc1F
15.1 | 183 mL/min/kg | 2180 mL/min/kg | 56.5 µg/mL (≈ 144 µM) | – | – | CC(C(=O)Nc1ccc(C(N)=O)cc1)N1CCCC(c2nc3ccccc3o2)C1 (stereo not drawn)
0.467 | 131 mL/min/kg | 508 mL/min/kg | 29.8 µg/mL (≈ 113 µM) | – | – | COc1nc(C)nc(N(C)Cc2nccs2)c1C
2.68 | 38.1 mL/min/kg | 2820 mL/min/kg | 10 µg/mL (≈ 25.7 µM) | – | – | COc1cccc(NC(=O)[C@H]2CCCN(S(=O)(=O)c3ccc(C)cc3)C2)c1
0.73 | 89.2 mL/min/kg | 2390 mL/min/kg | – | – | – | Cc1nc(-c2ccccc2)c(C(=O)Nc2ccc(Cl)c(Cl)c2)s1
13.6 | 6.04 mL/min/kg | 42.3 mL/min/kg | 25.8 µg/mL (≈ 83.4 µM) | – | – | CC(=O)NC1CCN(Cc2cccc(-c3cccnc3)c2)CC1
1.32 | ≤ 4.74 mL/min/kg | – | – | 0.682 | – | CC1CC(N)CCN1C(=O)c1cc(N2CCNC2=O)c(F)cc1F (stereo not drawn)
1.55 | ≤ 4.74 mL/min/kg | ≤ 10.7 mL/min/kg | 38.7 µg/mL (≈ 179 µM) | – | – | CC(=O)Nc1ccc2nc(C)cc(O)c2c1
1.72 | ≤ 4.74 mL/min/kg | ≤ 10.7 mL/min/kg | 47 µg/mL (≈ 171 µM) | – | – | Cc1cc2cc(C(=O)N(C)CCC(=O)O)oc2cc1C
10.2 | 557 mL/min/kg | 1060 mL/min/kg | 51 µg/mL (≈ 131 µM) | – | – | CC(C)c1nccn1-c1cccc([C@@H]2CCCN2C(=O)CCc2ccccc2)n1
0.607 | 43.8 mL/min/kg | 48.7 mL/min/kg | – | – | – | Cn1nc(-c2cc(F)cc(F)c2)cc1N
0.274 | ≤ 4.74 mL/min/kg | ≤ 10.7 mL/min/kg | 36.7 µg/mL (≈ 148 µM) | – | – | CN(C)C1=N[C@@H]2[C@@H](O)[C@H](O)[C@@H](CO)O[C@@H]2S1
143 | 38.4 mL/min/kg | 352 mL/min/kg | 55.4 µg/mL (≈ 136 µM) | – | – | COc1cccc(OCCCn2cncc2-c2cc3c(cc2C)n(C)c(=O)n3C)c1
– | – | – | 36.2 µg/mL (≈ 151 µM) | – | – | Cc1cnc(CS(=O)(=O)C2CCCC2)cn1
0.126 | 91.8 mL/min/kg | 209 mL/min/kg | 1.17 µg/mL (≈ 4.46 µM) | – | – | Cc1cccc(NC(=O)c2ccc3ccccc3c2)n1
3.06 | 8.59 mL/min/kg | 90.9 mL/min/kg | – | – | – | CN(C)c1ccnc2sc3c(=O)n(N4CCCCCC4)cnc3c12
0.657 | 16.2 mL/min/kg | 404 mL/min/kg | 36.8 µg/mL (≈ 134 µM) | – | – | Cc1cccc(NC(=O)CN(C)c2ncccc2F)n1
– | – | – | 0.34 µg/mL (≈ 1.07 µM) | – | – | CCOc1ccccc1NC(=O)C(=O)NCc1ccccc1F
10.4 | ≤ 4.74 mL/min/kg | 14.1 mL/min/kg | 94.8 µg/mL (≈ 284 µM) | – | – | O=C(c1ccc(F)cc1)N1CCN(CC(=O)N2CCCC2=O)CC1
